Results published in patent US20030180947A1, “Circadian control of stem/progenitor cell self-renewal and differentiation and of clock controlled gene expression” (priority 2001, published 2003).
“Also recorded” adds a separate entry of the source.

B1: mRBT1C76 fused to the GAL4 activation domain (pGADT7-mRBT1C76) (other, UniProt P04386 768-881, looked up)
chain: ANFNQSGNIADSSLSFTFTNSSNGPNLITTQTNSQALSQPIASSNVHDNFMNNEITASKIDDGNNSKPLSPGWTDQTAYNAFGITTGMFNTTTMDDVYNYLFDDEDTPPNPKKEPQNEIVSQADPVFLEALSSRYLGDSGLDDFFLDIDTSAVEKDVALPPPEPPHSLFCSPGSWEWNELDHIMEIILGS
notes: Yeast two-hybrid construct; also called C-terminal 76 amino acids of mRBT1

Columns and labels:
[1] = system: mPer1 expression in the lin− cells; test: Effect on mPer1 expression in lin− bone marrow cells (relative quantitative RT-PCR); assay type: cell-based, mouse; settings: 200 nM dexamethasone or 1 μM PMA, 1 or 2 hours, vs ethanol control
Method: (§1) Bone marrow cells were incubated with ACK lysing buffer (0.15M NH4Cl, 1 mM KHCO3 and 0.1 mM Na2EDTA; pH7.2) at room temperature for 4 minutes to remove red blood cells. The lin^− (lineage marker-negative) bone marrow cells were obtained by depleting lineage marker-positive cells using the MACS magnetic separation system (Miltenyi Biotec, Auburn, Calif.) according to the manufacturer's instructions. The antibodies used were PE-labeled rat anti-mouse Gr-1, TER119, B220, CD4, CD8, and Mac-1 monoclonal antibodies (all from BD PharMingen, San Diego, Calif.). Briefly, the cells were incubated with the antibody cocktail for the lineage markers described above at 6-10° C. for 15 minutes. After two washes with 1×phosphate-buffered saline (PBS; Sigma, St. Louis, Mo.) supplemented with 0.5% FBS (Hyclone), the cells were incubated with anti-PE antibody-coated magnetic beads (Miltenyi Biotec) at 6-10° C. for 15 minutes. […]
(§2) For each RT-PCR experiment, samples from six time points were analyzed at the same time. […]
(§3) Within each PCR experiment, the linear range of amplification was first determined using cDNA pooled from 6 time points. […]
(§4) As a negative control, the products of the RT reactions, without reverse transcriptase, were subjected to the same PCR amplification. […] Their relative quantities were determined by using the Image-Pro Plus software (Media Cybernetics). […]

[2] = system: mPer2 expression in the lin− cells; test: Effect on mPer2 expression in lin− bone marrow cells (relative quantitative RT-PCR); assay type: cell-based, mouse; settings: 200 nM dexamethasone or 1 μM PMA, 1 or 2 hours, vs ethanol control
Method: as §1, §2, §3, §4

Rat-1 fibroblasts = settings: cultured Rat-1 fibroblasts; Balsalobre et al. 2000; cited from earlier work
mper1 promoter = test: Per1-luciferase reporter (pGL3-mPer1-7.2 kb) in transfected NIH 3T3 cells; assay type: cell-based, mouse; settings: NIH 3T3, pGL3-mPer1-7.2 kb; 10^−6 M; 7 hours; FIG. 14
Description: FIG. 14 is a bar graph illustrating the effects of neurotransmitter analog treatment on NIH 3T3 cells transfected with pGL3-mPer1-7.2kb, which contains luciferase under control of a 7.2 kb region of the mper1 promoter. Cells were exposed to 10^−6 M forskolin as a positive control, 10^−6 M isoproterenol (a beta-adrenergic agonist), 10^−6 M propranolol (a beta-adrenergic antagonist), 10^−6 M phenylephrine (an alpha-adrenergic agonist), and 10^−6 M pentolamine (an alpha-adrenergic antagonist) for 7 hours.
H1299 cells were maintained in RPMI1640 (Gibco) with 10% FBS (Hyclone). NIH3T3 cells were maintained in DMEM (Gibco) with 10% FBS (Hyclone). The day before transfection, 3×10^5 cells/well were plated onto six-well plates. Cells were transfected with 500 ng of each expression plasmid, 100 ng of the firefly luciferase reporter construct and 2 ng of the Renilla luciferase control plasmid (pRL-SV40; Promega) using SuperFect transfection reagent (Qiagen) following the manufacturer's instructions. The Renilla luciferase control plasmid was cotrasfected to normalize transfection efficiency. When expression plasmids were omitted, same amount of the pcDNA3 plasmid was used to substitute the expression plasmids. Forty hours after transfection, cells were washed once with 1×PBS (Sigma) and lysed with 500 μl of passive lysis buffer (Promega). Luciferase activity of the cell lysate was assayed with the Dual-Luciferase Reporter Assay System (Promega) using a luminometer (Optocomp1; MGM Instruments) as recommended by the manufacturer.
A Per1-luciferase reporter plasmid was constructed essentially as described above, using a 7.2 kb fragment of the promoter region from mper1, forming pGL3-mPer1-7.2 kb. NIH 3T3 cells were transfected with pGL3-mPer1-7.2 kb as described above and cells were exposed to 10^−6 M forskolin as a positive control, 10^−6 M isoproterenol (a beta-adrenergic agonist), 10^−6 M propranolol (a beta-adrenergic antogonist), 10^−6 M phenylephrine (an alpha-adrenergic agonist), and 10^−6 M pentolamine (an alpha-adrenergic antagonist). Cells were exposed to the neurotransmitters for 7 hours and luciferase activity was measured as described above.

[3] = biological target: T1, mLATS2 fused to the GAL4 DNA binding domain (pGBKT7-mLATS2) (mouse, UniProt P04386 1-147; Q7TSJ6 1-1042); test: yeast two-hybrid assay
T1 construct: Yeast two-hybrid construct made by inserting the Bsm I-Xho I fragment of pcDNA3-mLATS2 into pGBKT7-mLATS2b; also called mLATS2/2b

| Molecule | expression levels relative to the forskolin positive control (mper1 promoter) | luciferase activity relative to control (mper1 promoter) | also measured |
| --- | --- | --- | --- |
| CCCCCCCCCCCCCC(=O)O[C@@H]1[C@@H](C)[C@@]2(O)[C@@H](C=C(CO)C[C@]3(O)C(=O)C(C)=C[C@@H]23)[C@@H]2C(C)(C)[C@]12OC(C)=O [PMA, phorbol-12-myristate-13-acetate] |  |  | mPer1 expression [1]: not affected; mPer2 expression [2]: neither dexamethasone nor PMA had a significant effect; Per1 induction and circadian gene expression (Rat-1 fibroblasts): induce mPer1 expression and elicit circadian gene expression; also recorded: induce immediate Per1 up-regulation and trigger circadian expression |
| CC(C)NCC(O)c1ccc(O)c(O)c1 (stereo not shown) [isoproterenol] | slightly diminished | increased luciferase activity |  |
| Cc1ccc(N(CC2=NCCN2)c2cccc(O)c2)cc1 [pentolamine] | slightly diminished | increased luciferase activity |  |
| CNC[C@H](O)c1cccc(O)c1 [phenylephrine] | slightly diminished | increased luciferase activity |  |
| B1 |  |  | binding result [3]: no binding |
